Results: PubChem BioAssay AID2060605 (Molecular Pharmacology Branch, DTP, NCI, 2025)

Test system: 947758-054-R-J2-PDC spheroid growth, percent test/control
Experiment: Anticancer human tumor 947758-054-R-J2-PDC patient-derived colon adenocarcinoma cell line growth inhibition [CLK]
Settings: spheroids with HUVEC and MSC; for IC50: curve of first compound; for viability, T/C: stronger effect = lower value; active = viability on the fitted dose curve at most 10% of control; inactive = the rest
Summary of the method: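 Patient-derived tumor cells grown as complex spheroids with HUVEC endothelial cells and mesenchymal stem cells, treated with drug combinations. Concentrations descend in half-log steps from near clinical Cmax, or from 10 microM if Cmax unknown.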
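Also: spheroids exposed to compounds for one week before readout.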
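For viability, T/C in this document: 100% = DMSO vehicle control wells.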

Nc1ccccc1NC(=O)c1ccc(CNC(=O)OCc2cccnc2)cc1 + CNC(=O)c1ccc(Nc2nc(OC3CCCC3)c3c(-c4ccc5nc(C)oc5c4)c[nH]c3n2)c(OC)c1
2.23 µM: IC50 (second compound 0.0316 µM)
2.52 µM: IC50 (second compound 0.1 µM)
0.439 µM: IC50 (second compound 1 µM)
active: viability, T/C (second compound 0.0316 µM, first compound 10 µM) 5.25% | viability, T/C (second compound 0.1 µM, first compound 10 µM) 4.57% | viability, T/C (second compound 0.316 µM, first compound 10 µM) 3.65% | viability, T/C (second compound 1 µM, first compound 10 µM) 1.54% | viability, T/C (second compound 3.16 µM, first compound 10 µM) 0.26% | viability, T/C (second compound 10 µM, first compound 10 µM) 0.52%
inactive: viability, T/C (second compound 0.0316 µM, first compound 0.0316 µM) 89.6% | viability, T/C (second compound 0.0316 µM, first compound 0.1 µM) 102% | viability, T/C (second compound 0.0316 µM, first compound 0.316 µM) 122% | viability, T/C (second compound 0.0316 µM, first compound 1 µM) 85.4% | viability, T/C (second compound 0.0316 µM, first compound 3.16 µM) 34.2% | viability, T/C (second compound 0.1 µM, first compound 0.0316 µM) 85.4% | viability, T/C (second compound 0.1 µM, first compound 0.1 µM) 106% | viability, T/C (second compound 0.1 µM, first compound 0.316 µM) 111% | viability, T/C (second compound 0.1 µM, first compound 1 µM) 116% | viability, T/C (second compound 0.1 µM, first compound 3.16 µM) 36.7% | viability, T/C (second compound 0.316 µM, first compound 0.0316 µM) 112% | viability, T/C (second compound 0.316 µM, first compound 0.1 µM) 83.5% | viability, T/C (second compound 0.316 µM, first compound 0.316 µM) 91.3% | viability, T/C (second compound 0.316 µM, first compound 1 µM) 101% | viability, T/C (second compound 0.316 µM, first compound 3.16 µM) 38.3% | viability, T/C (second compound 1 µM, first compound 0.0316 µM) 64.5% | viability, T/C (second compound 1 µM, first compound 0.1 µM) 62.7% | viability, T/C (second compound 1 µM, first compound 0.316 µM) 43% | viability, T/C (second compound 1 µM, first compound 1 µM) 48.7% | viability, T/C (second compound 1 µM, first compound 3.16 µM) 26.7% | viability, T/C (second compound 3.16 µM, first compound 0.0316 µM) 49.2% | viability, T/C (second compound 3.16 µM, first compound 0.1 µM) 43.8% | viability, T/C (second compound 3.16 µM, first compound 0.316 µM) 44.5% | viability, T/C (second compound 3.16 µM, first compound 1 µM) 33.1% | viability, T/C (second compound 3.16 µM, first compound 3.16 µM) 16.2% | viability, T/C (second compound 10 µM, first compound 0.0316 µM) 38.8% | viability, T/C (second compound 10 µM, first compound 0.1 µM) 26.8% | viability, T/C (second compound 10 µM, first compound 0.316 µM) 31.8% | viability, T/C (second compound 10 µM, first compound 1 µM) 29.2% | viability, T/C (second compound 10 µM, first compound 3.16 µM) 4.69%
2.51 µM: IC50 (second compound 0.316 µM)
< 0.0316 µM: IC50 (second compound 3.16 µM) | IC50 (second compound 10 µM)
